Active and inactive are the calls of the source.
Key:
[1] = biological target: T1, Histone-lysine N-methyltransferase NSD2 (Homo sapiens, UniProt O96028); assay type: biochemical
T1 sequence (O96028 whole entry): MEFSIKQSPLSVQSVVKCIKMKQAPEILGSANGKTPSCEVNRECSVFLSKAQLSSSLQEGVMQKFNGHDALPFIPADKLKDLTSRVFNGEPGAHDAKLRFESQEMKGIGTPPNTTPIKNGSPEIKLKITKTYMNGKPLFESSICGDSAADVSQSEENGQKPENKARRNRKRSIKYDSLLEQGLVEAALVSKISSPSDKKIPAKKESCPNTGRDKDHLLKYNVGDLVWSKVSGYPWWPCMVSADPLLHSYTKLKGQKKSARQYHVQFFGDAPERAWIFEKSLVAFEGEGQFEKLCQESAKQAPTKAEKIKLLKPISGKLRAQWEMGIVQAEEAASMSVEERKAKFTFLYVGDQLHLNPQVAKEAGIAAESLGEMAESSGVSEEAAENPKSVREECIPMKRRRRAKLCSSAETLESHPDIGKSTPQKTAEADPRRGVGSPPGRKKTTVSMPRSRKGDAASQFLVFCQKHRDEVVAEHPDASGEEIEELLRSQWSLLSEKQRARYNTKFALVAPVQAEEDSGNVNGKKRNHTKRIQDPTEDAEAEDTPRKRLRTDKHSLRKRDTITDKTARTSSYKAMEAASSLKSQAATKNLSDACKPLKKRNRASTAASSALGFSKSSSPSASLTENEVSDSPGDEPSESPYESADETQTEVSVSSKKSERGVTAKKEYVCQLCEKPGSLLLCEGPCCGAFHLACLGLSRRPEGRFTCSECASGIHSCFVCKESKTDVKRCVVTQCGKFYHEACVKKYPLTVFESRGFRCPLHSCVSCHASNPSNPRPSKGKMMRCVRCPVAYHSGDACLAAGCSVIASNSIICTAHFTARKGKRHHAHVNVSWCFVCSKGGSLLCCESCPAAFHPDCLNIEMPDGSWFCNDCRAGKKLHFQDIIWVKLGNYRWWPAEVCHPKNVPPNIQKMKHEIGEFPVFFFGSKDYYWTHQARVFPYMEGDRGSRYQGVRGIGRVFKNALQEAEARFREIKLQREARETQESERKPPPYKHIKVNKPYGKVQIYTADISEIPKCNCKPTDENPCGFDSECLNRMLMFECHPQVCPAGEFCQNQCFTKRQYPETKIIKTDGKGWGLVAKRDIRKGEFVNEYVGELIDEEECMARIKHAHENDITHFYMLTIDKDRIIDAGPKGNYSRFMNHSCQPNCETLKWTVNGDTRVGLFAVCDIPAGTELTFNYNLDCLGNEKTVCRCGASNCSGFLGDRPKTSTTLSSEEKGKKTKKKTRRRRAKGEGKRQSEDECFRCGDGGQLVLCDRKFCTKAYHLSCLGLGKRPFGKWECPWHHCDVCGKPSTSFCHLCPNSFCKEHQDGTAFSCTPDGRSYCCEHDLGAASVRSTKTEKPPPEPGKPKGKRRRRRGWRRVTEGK

[2] = biological target: Mitogen-activated protein kinase 10 (Homo sapiens, UniProt P53779); assay: Dose response biochemical screening assay for inhibitors of c-Jun N-Terminal Kinase 3 (JNK3). [Related pubchem assays: 746 ]
[3] = biological target: T2, E3 ubiquitin-protein ligase XIAP (Homo sapiens, UniProt P98170); assay: Counter Screen using XIAP-Bir3 for Chemical Antagonists of Bir1/2 domains of IAP-family anti-apoptotic proteins. [Related pubchem assays (depositor defined):AID1018, AID1449, AID1514, AID1638, AID1749, AID1750, AID488957, AID488963]
[4] = biological target: T2, E3 ubiquitin-protein ligase XIAP; assay: small molecules displacing peptide from XIAP – biochemical, IAP family, fluorescence polarization (AID 1018); assay type: functional
[5] = biological target: E3 ubiquitin-protein ligase Mdm2 (Homo sapiens, UniProt Q00987); assay: MDM2-luc reporter signal enhancers, multi-concentration potency testing, MDM2 ubiquitin-protein ligase inhibitor program, whole-cell format, luminescence detection, 384-well microplate (AID 1394); assay type: functional;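 further: MDM2 E3 inhibitors raise luminescence so EC50 is for signal enhancement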
[6] = M. tuberculosis H37Rv growth inhibitors, H37Rv strain (AID 1626); assay type: functional
[7] = biological target: T3, Heat shock factor protein 1 (Mus musculus, UniProt P38532); assay: enhancement of HSF1-driven luciferase signal – cell-based, NIH3T3, luminescence, dose retest, confirmation (AID 435004); assay type: functional;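 further: stress induced by proteasome inhibitor MG132 added 30 min after compound; luciferase reporter driven by HSF1 response element in NIH3T3 cells; actives raise luminescence as potentiators of the MG132 stress response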
T3 sequence (P38532 whole entry): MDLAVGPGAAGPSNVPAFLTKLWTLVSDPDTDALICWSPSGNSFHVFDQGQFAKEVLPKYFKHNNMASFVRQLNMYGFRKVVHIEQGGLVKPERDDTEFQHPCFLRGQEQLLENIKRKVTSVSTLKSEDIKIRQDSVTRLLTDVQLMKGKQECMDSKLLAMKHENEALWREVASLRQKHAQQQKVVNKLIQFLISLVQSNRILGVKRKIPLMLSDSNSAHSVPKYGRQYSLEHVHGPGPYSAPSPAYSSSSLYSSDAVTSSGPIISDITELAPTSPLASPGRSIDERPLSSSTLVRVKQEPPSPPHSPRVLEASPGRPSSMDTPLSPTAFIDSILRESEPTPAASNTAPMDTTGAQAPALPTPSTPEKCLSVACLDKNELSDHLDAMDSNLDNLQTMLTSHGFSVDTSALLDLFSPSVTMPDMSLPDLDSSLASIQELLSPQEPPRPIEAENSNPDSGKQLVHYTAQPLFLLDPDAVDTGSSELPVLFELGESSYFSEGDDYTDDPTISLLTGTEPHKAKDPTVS

Ion channel NompC = Ion channel NompC (Danio rerio, UniProt Q7T1G6); assay: Fluorescence counterscreen assay for TRPML3 agonists: dose response cell-based high-throughput screening assay to identify agonists of the transient receptor potential channel N1 (TRPN1). [Related pubchem assays: 1526, 1424, 1448 ]; assay type: functional
Mucolipin-3 = biological target: T4, Mucolipin-3 (Homo sapiens, UniProt Q8TDD5); assay: Dose response cell-based high-throughput screening assay for agonists of the transient receptor potential channel ML3 (TRPML3). [Related pubchem assays: 1526, 1424, 1448 ]; assay type: functional
T4 sequence (Q8TDD5 whole entry): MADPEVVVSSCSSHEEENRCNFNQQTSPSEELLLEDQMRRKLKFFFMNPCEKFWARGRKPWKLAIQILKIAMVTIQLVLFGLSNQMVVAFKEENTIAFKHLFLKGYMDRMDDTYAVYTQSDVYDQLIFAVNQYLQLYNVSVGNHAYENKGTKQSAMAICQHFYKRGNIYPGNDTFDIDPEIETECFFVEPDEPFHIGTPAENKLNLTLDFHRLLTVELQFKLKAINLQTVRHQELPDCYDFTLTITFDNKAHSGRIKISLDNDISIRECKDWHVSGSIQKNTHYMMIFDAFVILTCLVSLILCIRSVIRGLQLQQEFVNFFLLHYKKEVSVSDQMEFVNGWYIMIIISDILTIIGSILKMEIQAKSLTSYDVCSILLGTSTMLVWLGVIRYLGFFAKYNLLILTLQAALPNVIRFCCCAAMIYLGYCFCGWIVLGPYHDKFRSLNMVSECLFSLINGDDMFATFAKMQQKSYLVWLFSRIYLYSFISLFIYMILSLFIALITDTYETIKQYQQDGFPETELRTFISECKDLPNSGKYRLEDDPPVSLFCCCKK

T2 sequence (P98170 whole entry): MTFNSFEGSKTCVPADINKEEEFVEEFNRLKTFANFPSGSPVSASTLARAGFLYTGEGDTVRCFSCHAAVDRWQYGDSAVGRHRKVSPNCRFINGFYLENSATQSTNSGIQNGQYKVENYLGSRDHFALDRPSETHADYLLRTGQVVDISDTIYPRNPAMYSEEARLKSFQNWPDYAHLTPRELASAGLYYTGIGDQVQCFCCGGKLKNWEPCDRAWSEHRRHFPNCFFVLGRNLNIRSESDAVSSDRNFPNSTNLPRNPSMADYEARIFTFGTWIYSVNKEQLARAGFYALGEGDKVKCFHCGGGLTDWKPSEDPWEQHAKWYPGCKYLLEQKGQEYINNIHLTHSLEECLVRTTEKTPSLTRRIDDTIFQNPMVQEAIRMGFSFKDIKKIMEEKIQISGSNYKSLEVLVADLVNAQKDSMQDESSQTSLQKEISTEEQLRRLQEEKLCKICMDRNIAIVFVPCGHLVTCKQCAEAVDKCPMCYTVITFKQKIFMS
Sequence of Mitogen-activated protein kinase 10 (P53779 whole entry): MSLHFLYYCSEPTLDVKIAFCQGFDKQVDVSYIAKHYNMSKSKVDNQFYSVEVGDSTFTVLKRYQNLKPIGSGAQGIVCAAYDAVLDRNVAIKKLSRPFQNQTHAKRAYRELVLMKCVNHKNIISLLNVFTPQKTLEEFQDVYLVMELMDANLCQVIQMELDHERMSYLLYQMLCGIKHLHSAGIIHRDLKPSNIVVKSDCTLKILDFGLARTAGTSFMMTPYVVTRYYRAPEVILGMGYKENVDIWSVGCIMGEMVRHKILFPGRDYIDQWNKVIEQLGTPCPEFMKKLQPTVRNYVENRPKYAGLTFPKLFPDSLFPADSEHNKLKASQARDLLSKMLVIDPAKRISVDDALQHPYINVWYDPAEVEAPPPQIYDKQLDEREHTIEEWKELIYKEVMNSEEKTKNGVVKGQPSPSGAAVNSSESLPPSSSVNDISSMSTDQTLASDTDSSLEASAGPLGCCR
Sequence of E3 ubiquitin-protein ligase Mdm2 (Q00987 whole entry): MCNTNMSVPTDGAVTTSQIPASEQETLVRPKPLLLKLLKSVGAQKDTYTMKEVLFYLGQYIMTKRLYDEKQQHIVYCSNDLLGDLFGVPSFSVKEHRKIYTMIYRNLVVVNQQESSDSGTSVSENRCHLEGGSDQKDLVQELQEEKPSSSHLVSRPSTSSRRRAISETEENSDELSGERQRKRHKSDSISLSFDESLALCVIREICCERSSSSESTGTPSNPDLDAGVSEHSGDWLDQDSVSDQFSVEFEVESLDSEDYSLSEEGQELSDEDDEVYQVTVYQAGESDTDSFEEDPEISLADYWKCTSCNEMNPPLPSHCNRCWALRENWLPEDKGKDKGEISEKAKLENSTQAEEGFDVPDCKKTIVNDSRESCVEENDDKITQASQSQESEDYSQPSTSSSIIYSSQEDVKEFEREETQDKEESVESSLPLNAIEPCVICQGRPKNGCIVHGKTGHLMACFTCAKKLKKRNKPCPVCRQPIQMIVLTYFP
Sequence of Ion channel NompC (Q7T1G6 whole entry): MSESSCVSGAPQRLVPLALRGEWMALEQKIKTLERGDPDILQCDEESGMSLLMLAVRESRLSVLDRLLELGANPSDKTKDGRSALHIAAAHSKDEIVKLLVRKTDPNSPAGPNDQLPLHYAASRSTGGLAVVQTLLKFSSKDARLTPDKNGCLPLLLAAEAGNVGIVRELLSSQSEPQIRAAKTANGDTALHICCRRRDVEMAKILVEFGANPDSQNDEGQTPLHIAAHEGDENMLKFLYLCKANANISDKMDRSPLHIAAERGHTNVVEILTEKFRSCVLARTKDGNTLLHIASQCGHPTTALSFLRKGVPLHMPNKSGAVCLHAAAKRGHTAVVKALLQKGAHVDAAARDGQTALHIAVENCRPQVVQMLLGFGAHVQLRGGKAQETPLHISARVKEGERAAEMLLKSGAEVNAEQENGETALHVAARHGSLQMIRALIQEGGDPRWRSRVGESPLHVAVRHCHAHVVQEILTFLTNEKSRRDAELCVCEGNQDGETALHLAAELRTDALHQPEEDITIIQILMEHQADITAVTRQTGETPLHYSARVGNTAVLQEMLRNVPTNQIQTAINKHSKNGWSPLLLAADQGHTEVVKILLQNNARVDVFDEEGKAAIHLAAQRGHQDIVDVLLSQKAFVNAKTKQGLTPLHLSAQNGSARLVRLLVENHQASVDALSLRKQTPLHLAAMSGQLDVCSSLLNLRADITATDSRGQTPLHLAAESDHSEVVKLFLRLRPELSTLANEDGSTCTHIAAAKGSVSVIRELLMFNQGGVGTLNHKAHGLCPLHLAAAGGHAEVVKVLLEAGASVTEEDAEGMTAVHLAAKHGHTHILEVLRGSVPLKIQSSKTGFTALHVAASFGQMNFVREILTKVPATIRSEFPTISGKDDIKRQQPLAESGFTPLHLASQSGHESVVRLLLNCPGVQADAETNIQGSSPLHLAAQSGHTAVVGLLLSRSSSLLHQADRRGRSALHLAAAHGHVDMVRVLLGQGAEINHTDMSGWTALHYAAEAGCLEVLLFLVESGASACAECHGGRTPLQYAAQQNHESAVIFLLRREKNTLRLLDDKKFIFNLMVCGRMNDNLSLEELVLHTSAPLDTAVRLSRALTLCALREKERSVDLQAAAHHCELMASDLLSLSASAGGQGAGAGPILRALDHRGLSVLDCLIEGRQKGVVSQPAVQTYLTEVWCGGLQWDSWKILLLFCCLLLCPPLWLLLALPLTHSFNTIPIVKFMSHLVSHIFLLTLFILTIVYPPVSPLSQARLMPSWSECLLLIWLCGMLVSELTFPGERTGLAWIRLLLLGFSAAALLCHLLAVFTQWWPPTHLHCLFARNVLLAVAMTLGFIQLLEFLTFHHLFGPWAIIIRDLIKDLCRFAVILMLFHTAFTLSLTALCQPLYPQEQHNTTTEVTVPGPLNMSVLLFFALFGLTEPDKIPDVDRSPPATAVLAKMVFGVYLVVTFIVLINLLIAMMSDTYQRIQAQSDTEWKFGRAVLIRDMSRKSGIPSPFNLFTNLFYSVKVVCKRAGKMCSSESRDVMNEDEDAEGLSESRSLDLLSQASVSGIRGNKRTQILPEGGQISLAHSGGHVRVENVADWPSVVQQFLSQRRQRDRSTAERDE

**Q.** For `CNCc1ccccc1Sc1cccc(O)c1`, which AC50 [1] is on record?
**A.** Its AC50 is > 20 µM (inactive).

**Q.** With `CN1C=CC(=C2C(=O)c3ccccc3C2=O)C=C1` as the compound, how does the IC50 [2] read?
**A.** Its IC50 is 28.5 µM (not active).

**Q.** With `CCOC(=O)c1[nH]nc2ccccc12` as the compound, how does the IC50 [2] read?
**A.** The IC50 was > 31 µM (not active).

**Q.** With `N#C/C(=C\c1ccc(-c2ccc(C(=O)O)cc2)o1)C(=O)NCC1CCCO1` (stereo unspecified) as the compound, how does the AC50 [1] read?
**A.** The AC50 was > 20 µM (inactive).

**Q.** With `CCSc1nnc(NC(=O)c2cc(-c3ccc(C)c(C)c3O)[nH]n2)s1` as the compound, how does the IC50 [3] read?
**A.** The IC50 was > 100 µM (inactive).

**Q.** And the IC50 [4]?
**A.** Its IC50 is > 100 µM (not active).

**Q.** What does the source list for `O=C(Nc1ccc(-c2csnn2)cc1)C1CC1`?
**A.** EC50 [5]: 3.55 µM (not active); IC50 [6]: > 100 µM (active)

**Q.** For `Nc1cnn(Cc2ccc(F)cc2)c1`, which EC50 [7] is on record?
**A.** Its EC50 is > 260 µM (inactive).

**Q.** And the IC50 [6]?
**A.** Its IC50 is > 100 µM (active).

**Q.** Which IC50 [3] does the source give for `CC(SCc1ccccc1)C(=O)NCc1ccccn1` (stereo unspecified) here?
**A.** Its IC50 is > 100 µM (inactive).

**Q.** What about the IC50 [4] of the same compound?
**A.** The IC50 was > 100 µM (not active).

**Q.** For `COc1ccc(C(=O)Nc2ccc(S(=O)(=O)N3CCCCC3C)cc2)c(OC)c1OC` (stereo unspecified), which EC50 (Ion channel NompC) is on record?
**A.** The EC50 was > 29.9 µM (not active).

**Q.** What about the EC50 (Mucolipin-3) of the same compound?
**A.** Its EC50 is 1.78 µM (active).

**Q.** What does the source list for `Cc1cc(NC(=O)Cc2csc(-c3ccccc3)n2)ccc1Br`?
**A.** IC50 [3]: > 100 µM (inactive); IC50 [4]: > 100 µM (not active)
